The results in this text go back to ChEMBL document CHEMBL1139029, “Synthesis and SAR of substituted tetrahydrocarbazole derivatives as new NPY-1 antagonists” (Bioorg Med Chem Lett, 2006).

System in one series: not listed separately
Put plainly: Oral bioavailability in CD rat at 5 mg/kg, po. The class given is ADME, organism-based. Conditions: in vivo.
As usually defined, the bioavailability is dose-corrected exposure relative to a reference, in per cent. A high value points to good availability. For `CN1CCC(Cn2c3c(c4ccccc42)C(=O)C(N2CCN(C)CC2)C[C@H]3Oc2ccc(Cl)cc2)CC1` (stereo partly specified), the bioavailability came to 27%.

The compound `CN1CCN([C@H]2C[C@@H](Oc3ccc(Cl)cc3)c3c(c4ccccc4n3CC3CCNCC3)C2=O)CC1` displayed a bioavailability of 0%.

System in another series: not listed separately
Put plainly: Plasma clearance in CD rat at 1 mg/kg, iv. Also noted: dose 1 mg/kg, route intravenous.
Details: not given
Format: ADME, organism-based.
What is called clearance is a measure of how efficiently the substance is removed, as volume per time. Read a high clearance as a high capacity for elimination. Turning to `CN1CCC(Cn2c3c(c4ccccc42)C(=O)C(N2CCN(C)CC2)C[C@H]3Oc2ccc(Cl)cc2)CC1` (stereo partly specified), the clearance was 59 mL/min/kg.

System in another series: not listed separately
The series is described as follows: Ratio of drug level in brain against plasma in CD rat at 1 mg/kg, iv. Format: ADME, organism-based. Particulars: brain and plasma. Also on record: dose 1 mg/kg, route intravenous.
In general, Kp refers to the ratio of the level in a tissue or fluid to that in plasma or blood. With `CN1CCC(Cn2c3c(c4ccccc42)C(=O)C(N2CCN(C)CC2)C[C@H]3Oc2ccc(Cl)cc2)CC1` (stereo partly specified), the Kp was 0.8.

The target of another series is T1, Neuropeptide Y receptor type 1 (Homo sapiens, UniProt P25929).
T1 sequence (P25929 whole entry): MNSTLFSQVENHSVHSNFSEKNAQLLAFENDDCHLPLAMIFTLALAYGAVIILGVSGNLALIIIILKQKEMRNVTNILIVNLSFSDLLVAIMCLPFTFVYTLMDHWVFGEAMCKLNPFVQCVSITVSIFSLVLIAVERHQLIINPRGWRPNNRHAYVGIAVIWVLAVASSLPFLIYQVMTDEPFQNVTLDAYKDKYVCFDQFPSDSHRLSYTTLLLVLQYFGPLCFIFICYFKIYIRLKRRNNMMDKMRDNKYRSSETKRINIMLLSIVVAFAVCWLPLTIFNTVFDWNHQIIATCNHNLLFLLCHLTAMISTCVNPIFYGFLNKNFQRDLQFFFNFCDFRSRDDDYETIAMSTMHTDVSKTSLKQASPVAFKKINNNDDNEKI
Put plainly: Displacement of [125I]PYY from human recombinant NPY1 receptor expressed in CHO cells. Format: cell-based.
Details: not given
Background: Loss of bound radioactivity is the signal in a displacement assay; it reports binding, not function.
As usually defined, the IC50 is the midpoint of a concentration-inhibition curve. `CN1CCN(C2C[C@@H](Oc3ccc(Cl)cc3)c3c(c4ccccc4n3CC3CCNCC3)C2=O)CC1=O` (stereo partly specified): the IC50 was 3890 nM.

Turning to `CN1CCN(C2C[C@@H](Oc3ccc(Cl)cc3)c3c(c4ccccc4n3CCCN3CCCCC3)C2=O)CC1` (stereo partly specified), the IC50 was 1320 nM.

In the case of `CC1CCN([C@@H]2C[C@@H](Oc3ccc(Cl)cc3)c3c(c4ccccc4n3CC3CCNCC3)C2=O)CC1`, the IC50 was 97.7 nM.

Regarding `O=C1c2c(n(CCCN3CCCCC3)c3ccccc23)[C@H](Oc2ccc(Cl)cc2)CC1N1CCCCC1` (stereo partly specified), the IC50 is 3390 nM.

On to `CNC1CCC(Cn2c3c(c4ccccc42)C(=O)C(N2CCN(C)CC2)C[C@H]3Oc2ccc(Cl)cc2)CC1` (stereo partly specified), for which the IC50 was 93.3 nM.

On to `O=C1CC[C@@H](Oc2ccc(Cl)cc2)c2c1c1ccccc1n2CCCN1CCCCC1`, for which the IC50 was 7240 nM.

For `CC1CCN(C2C[C@@H](Oc3ccc(Cl)cc3)c3c(c4ccccc4n3CCCN3CCCCC3)C2=O)CC1` (stereo partly specified), the IC50 is 646 nM.

For the compound `CN1CCN([C@@H]2C[C@@H](Oc3ccc(Cl)cc3)c3c(c4ccccc4n3CC3CCNCC3)C2=O)CC1`, the 50% inhibitory concentration (IC50) is 776 nM.

Regarding `O=C1c2c(n(CCCN3CCCCC3)c3ccccc23)[C@H](Oc2ccc(Cl)cc2)CC1N1CCNCC1` (stereo partly specified), the IC50 was 331 nM.

Take `O=C1c2c(n(CCCN3CCCCC3)c3ccccc23)[C@H](Oc2ccc(Cl)cc2)CC1N1CCOCC1` (stereo partly specified): the IC50 was 15800 nM.

On to `CN1CCN(C2C[C@@H](Oc3ccc(Cl)cc3)c3c(c4ccccc4n3C[C@H]3CCNC[C@@H]3F)C2=O)CC1` (stereo partly specified), for which the IC50 is 240 nM.

Turning to `O=C1c2c(n(CC3CCNCC3)c3ccccc23)[C@H](Oc2ccc(Cl)cc2)CC1N1CCN(CCO)CC1` (stereo partly specified), the IC50 is 37.2 nM.

Consider `CC1(F)CCN(C2C[C@@H](Oc3ccc(Cl)cc3)c3c(c4ccccc4n3CC3CCNCC3)C2=O)CC1` (stereo partly specified), for which the IC50 was 100 nM.

Turning to `CN1CCN(C2C[C@@H](Oc3ccc(Cl)cc3)c3c(c4ccccc4n3C[C@H]3CCN(C)C[C@@H]3F)C2=O)CC1` (stereo partly specified), the IC50 is 437 nM.

`CN1CCN(C2C[C@@H](Oc3ccc(Cl)cc3)c3c(c4ccccc4n3C[C@@H]3CCNC[C@@H]3F)C2=O)CC1` (stereo partly specified): the IC50 was 186 nM.

Regarding `CC1CCN([C@H]2C[C@@H](Oc3ccc(Cl)cc3)c3c(c4ccccc4n3CC3CCNCC3)C2=O)CC1`, the IC50 is 22.4 nM.

What is called Ki is the dissociation constant of the complex between target and ligand, obtained from inhibition or displacement. `CN1CCN(C2C[C@@H](Oc3ccc(Cl)cc3)c3c(c4ccccc4n3C[C@@H]3CCN(C)C[C@@H]3F)C2=O)CC1` (stereo partly specified): the IC50 is 170 nM and the Ki was 100 nM.

Regarding `CN1CCC(Cn2c3c(c4ccccc42)C(=O)C(N2CCN(C)CC2)C[C@H]3Oc2ccc(Cl)cc2)CC1` (stereo partly specified), the half-inhibitory concentration (IC50) was 33.9 nM.

With `O=C1c2c(n(CC3CCNCC3)c3ccccc23)[C@H](Oc2ccc(Cl)cc2)CC1N1CCC(F)(F)CC1` (stereo partly specified), the IC50 was 1860 nM.

For `CN1CCN([C@H]2C[C@@H](Oc3ccc(Cl)cc3)c3c(c4ccccc4n3CC3CCNCC3)C2=O)CC1`, the IC50 is 49 nM.

In the case of `CN1CCN(C2C[C@@H](Oc3ccc(Cl)cc3)c3c(c4ccccc4n3C)C2=O)CC1` (stereo partly specified), the IC50 was 25100 nM.
